Measurements from US20010038822A1, “Melanotropin analogs for potential radiopharmaceuticals for diagnosis and treatment of melanoma” (priority 1998, published 2001).
Read-outs that look alike come from different tables or passages of the source. Each block holds one compound with its values, some of them ahead of it. Positions of bridges follow the written chain, without caps; N, C: chain ends. Non-standard residues stand in square brackets, D forms with d. Residues, ends and D or L forms follow the SMILES beside them.

Legend:
[1] = Stabilities of tracer level complexes under challenge (10 mM cysteine / 0.05M phosphate); format: physicochemical
Experimental: ^99mTcO4^− was obtained from a ^99Mo/^99mTc generator produced by Mallinckrodt, Inc. ^188Re was obtained from a ^188W/^188Re generator produced by the University of Missouri research reactor. Radiolabeled peptides were prepared by substitution onto either ^99mTc- or ^188Re-glucoheptonate. For ^188Re complexes, 500 μL of generator eluant was added to a tube containing 50 mg Na-glucoheptonate and 10 mg SnCl2.2H2O dissolved in 200 μL N2-purged 5% disodium-EDTA and heated at 70-80° C. for 0.5 hour. 50 μL of a 1 mg/mL peptide solution was then added, the pH was adjusted to 7-8 with 0.5 N NaOH, and the mixture was allowed to incubate for 90 minutes. at 70-80° C. Syntheses of ^99mTc-labeled peptides differed only in that they were carried out at 25° C. using a 10-fold lower concentration of SnCl2.2H2O.

[2] = test system: B16F1 murine melanoma cells; format: cell-based
Experimental: Peptide bioactivity was determined by measuring melanin released into cell culture media in an in vitro assay using B16F1 murine melanoma cells (Siegrist, W., 1986). Cells were incubated with various concentrations of peptide and assayed for melanin production by measuring the absorbance of the culture media at 405 nm. Absorbance values were compared to a standard curve obtained using synthetic melanin from Sigma. The standard curve was linear over the experimental range of absorbance values.

[3] = molecular target: T1, α-MSH receptor on B16-F1 murine melanoma cells (Mus musculus, UniProt Q01727); test: Competitive receptor binding assay with ^125I-[Nle^4, D-Phe^7]-α-MSH
T1 construct: endogenous in cells; host or cells: B16-F1 murine melanoma cells
Experimental: Quantitative receptor binding assays were carried out following a previously described method (Siegrist W., 1988; Sahm, U. G., 1994). Cells were seeded at a density of 5×10^5 cells per well in 24 well tissue culture plates and exposed to varying concentrations of peptides on 0.5 mL of binding media (25 mM HEPES/NaOH pH=7.4, 0.2% BSA, 0.3 mM 1,10-phenanthroline, and approximately 100,000 CPM of ^125I-[Nle^4, D-Phe^7]-α-MSH) (36) at 4° C. for 8 hours. The cells were rinsed with PBS, lysed with 1 M NaOH and counted in a 1275 minigamma gamma counter from LKB Wallac.

T1 sequence (Q01727 whole entry): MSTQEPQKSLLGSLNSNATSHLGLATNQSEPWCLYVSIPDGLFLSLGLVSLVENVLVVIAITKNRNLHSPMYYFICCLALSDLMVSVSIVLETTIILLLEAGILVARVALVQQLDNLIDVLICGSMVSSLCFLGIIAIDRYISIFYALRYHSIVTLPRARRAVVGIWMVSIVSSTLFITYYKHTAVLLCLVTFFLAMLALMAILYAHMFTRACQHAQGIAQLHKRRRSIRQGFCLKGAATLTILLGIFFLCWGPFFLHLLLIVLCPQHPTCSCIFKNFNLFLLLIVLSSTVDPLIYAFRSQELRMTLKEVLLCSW

Stability of tracer level complex ([1]; 10 mM Cysteine challenge, 4 hrs): 48.9%
Stability of tracer level complex ([1]; 10 mM Cysteine challenge, 24 hrs): 34.0%
Stability of tracer level complex ([1]; 0.05M Phosphate challenge, 4 hrs): 90.3%
Stability of tracer level complex ([1]; 0.05M Phosphate challenge, 24 hrs): 66.4%
half-life ([1]; 0.05M phosphate with 10 mM cysteine, in competition with 10 mM free cysteine, read-out: t½ (converted)): ~4 h
Compound: CC(=O)N[C@@H](CS)C(=O)N[C@@H](CCC(=O)O)C(=O)N[C@@H](Cc1c[nH]cn1)C(=O)N[C@H](Cc1ccccc1)C(=O)N[C@@H](CCCNC(=N)N)C(=O)N[C@@H](Cc1c[nH]c2ccccc12)C(=O)N[C@@H](CS)C(=O)N[C@@H](CCCCN)C(=O)N1CCC[C@H]1C(=O)N[C@H](C(N)=O)C(C)C (188Re complex, metal not drawn) [^188ReMSH] (Ac-CEH[dF]RWCKPV-NH2)

EC50 [2]: 0.026 nM
Ki ([3]; B16-F1 murine melanoma cells, read-out: Ki): 0.68 nM
Compound: CC(=O)N[C@H]1CSSC[C@@H](C(=O)N[C@@H](CCCCN)C(=O)N2CCC[C@H]2C(=O)N[C@H](C(N)=O)C(C)C)NC(=O)[C@H](Cc2c[nH]c3ccccc23)NC(=O)[C@H](CCCNC(=N)N)NC(=O)[C@@H](Cc2ccccc2)NC(=O)[C@H](Cc2c[nH]cn2)NC(=O)[C@H](CCC(=O)O)NC1=O [APOMSH, NA-Cys-Glu-His-D-Phe-Arg-Trp-Cys-Lys-Pro-Val-NH2, reference compound] (Ac-CEH[dF]RWCKPV-NH2; disulfide 1-7)

EC50 ([2]; B16-F1 murine melanoma cells, read-out: EC50 melanin synthesis): 0.035 nM
receptor binding affinity higher than that of ReMSH [3]: approximately 25 fold
Ki ([3]; read-out: receptor binding affinity): 2.9 nM
Compound: rhenium complex of NAc-Cys-Cys-Glu-His-D-Phe-Arg-Trp-Cys-Lys-Pro-Val-NH2, APOMSH analog with additional N-terminal Cys [ReCCMSH]
ability to stimulate melanin production ([2]; compared with APOMSH): almost identical to APOMSH
